Where “and” joins values, the source holds several entries; their conditions need not be identical. Identical values can stand only once. Like-named read-outs stand apart in the source and are kept apart here. Marks after values point to notes of the source that are not given here.
What was measured:
[1] = cited from earlier work
A431 cancer cells [2] = assay: MTT-based cytotoxicity assay under different O2 levels; assay type: cell-based, Human; conditions: A431, 72 h
[3] = system: EGFR phosphorylation at position Y1068 and ERK 1/2 in A431 cells; assay: Western blot of EGFR signaling (pEGFR Y1068, pERK 1/2) after EGF stimulation; assay type: cell-based, Human; conditions: A431 serum-starved, 2 h drug, EGF 50 ng/mL 10 min, normoxic
[4] = Cyclic voltammetry, cathodic peak potential Co(III)/Co(II); assay type: physicochemical; conditions: 10 mM phosphate buffer pH 7.40, 0.1 M KCl, scan rate 30 mV/s, 1.5 mM complex
Description: As the reduction process is crucial for the activation of cobalt(III)-based prodrug systems, the redox properties of the complexes were investigated to elucidate the effects of ligand methylation at different positions. Cyclic voltammetry measurements were performed in aqueous solution at pH 7.40 (10 mM phosphate buffer with 0.1 M KCl). […] Also, at a much higher scan speed of 1000 mV/s, the redox processes were still completely irreversible (Figure S5).
The compounds were dissolved in 10 mM phosphate buffer (pH 7.40), with 0.1 M KCl as the supporting electrolyte, to obtain a final concentration of 1.5 mM. Electrochemical experiments were conducted on an EG&G PARC 273A potentiostat/galvanostat with scan rates of 30 and 1000 mV/s at room temperature. Argon was bubbled through the solution before every measurement to remove oxygen. A three-electrode configuration cell was used with a glassy carbon electrode as the working electrode, which was polished before every measurement. The reference electrode was Ag/AgCl/KCl (3.5 M), and the auxiliary electrode was a platinum wire. Electrodes were conditioned regularly in 1 M H2SO4 for 5–10 cycles between voltage limits of −1.0 and 1.0 V at a scan rate of 100 mV/s. The system was calibrated with 1.5 mM K3[Fe(CN)6] for every experiment. Redox potentials measured relative to the Ag/AgCl/KCl (3.5 M) reference electrode were converted for potentials against NHE by the addition of 0.205 V. Measurements were repeated at least three times, and the mean values were calculated.

[5] = Proton dissociation constants by pH-potentiometric titration; assay type: physicochemical; conditions: pH-potentiometry, 25.0 °C, I = 0.1 M (KCl)
From the text: After reductive activation of the cobalt(III) prodrugs, it is essential to investigate whether the formed cobalt(II) complexes indeed can release the coordinated targeting ligand. For this reason, we selected two ternary systems as models to study the potential liberation of the (N,N) ligand from the mixed-ligand cobalt complex upon reduction. Thus, the aqueous stability of several cobalt(II) complexes was investigated under strictly anaerobic conditions. Due to the limited water solubility of cobalt(II) chloride complexes with L, model ligands with better solubility, namely, MeEn and PhEn, were used. First, deprotonation processes of the acetlyacetone (Hacac) and the fully protonated MeEn and PhEn ligands were followed at pH 2.0–11.5 (Table 2).
(§1) For determination of the proton dissociation (Ka) and formation constants (β) pH-potentiometric measurements were carried out at 25 ± 0.1 °C and an ionic strength (I) of 0.10 M (KCl) to keep the activity coefficients constant. A carbonate-free KOH solution (0.10 M) was used for titrations. The exact concentrations of HCl and KOH were determined by pH-potentiometric titrations. A Metrohm-combined electrode (type 6.0234.100) connected to an Orion 710A pH-meter and a computer-controlled Methrom 665 Dosimat buret (increment, 1 μL; precision, 2 μL) were used for the pH-potentiometric measurements. […] The determined average water ionization constant (pKw = 13.76 ± 0.01) corresponds well to the literature data.[37] Titration points included in the calculations gave a reproducibility within 0.005 pH unit. Titrations were performed in the pH range of 2.0–11.5, and the initial volume of the samples was 10 mL. Binary systems contained 1 or 2 mM ligand, and metal:ligand ratios of 1:1, 1:2, 1:3, and 1:4 were used. In the ternary systems, the cobalt(II) concentration was 1 mM and the two types of ligands (A, acac, and B, MeEn, or PhEn) were varied as follows: 1:1:1, 1:2:1, 1:1:2, and 1:2:2 Co(II):A:B. The samples were degassed by bubbling purified argon through them for 10 min prior to the measurements, and argon was also passed over the solutions during the titrations.

[6] = Overall stability constants of binary and ternary cobalt(II) complexes by pH-potentiometry; assay type: physicochemical; conditions: for fraction of ligand coordinated to cobalt(II): 1:2:1 cobalt(II)-acac-ligand system, computed from stability constants; for log β [Co(II)A2B]0 ternary complex / log β [Co(II)AB2]+ ternary complex / log β [Co(II)AB]+ ternary complex: A = acac, B = MeEn or PhEn
Description: Following the determination of the stability constants for the binary complexes (Table 2), overall stability constants for the mixed-ligand complexes formed in the cobalt(II)–acac–MeEn and cobalt(II)–acac–PhEn ternary systems were calculated on the basis of pH-potentiometric titrations. Three types of complexes were formed, [CoAB]^+, [CoA2B], and [CoAB2]^+, where “A” denotes acac and “B” refers to MeEn or PhEn. Concentration distribution curves in Figure 5 were computed using the stability constants of the 1:2:1 cobalt(II)–acac–PhEn composition that corresponds to the reduced form of Co(II)(acac)2L^0. […] For the 1:2:1 cobalt(II)–acac–MeEn system, ∼11% are still coordinated to cobalt(II) at pH 7.4 (Figure S6). However, it has to be mentioned that these calculations were performed for 1 mM cobalt(II) (where the titrations were performed), and the amount of the intact ternary complex further decreases with lower concentrations [e.g., in the latter system at pH 7.4 and 0.1 mM cobalt(II), the coordinated MeEn fraction is only ∼2%].
as §1
The stoichiometry of the complexes and overall stability constants were established by the computer program Hyperquad2013.[53] For the general equilibrium β(MpLqHr) is defined as [drawing 2] 1 where M denotes the cobalt(II) ion and L the completely deprotonated ligand. The calculations were performed as reported in our previous work.[54]

[7] = I = 0.1 M NaClO4; cited from earlier work
A431 cancer cells [8] = conditions: cited from earlier work
EGFR (ErbB1) = EGFR (ErbB1) (Homo sapiens, UniProt P00533); assay: Cell-free kinase inhibition assay (ZLYTE, Select Screen); assay type: biochemical; conditions: 10 μM ATP (10-fold excess of ATP), 1% DMSO
EGFR (ErbB1), sequence (P00533 25-1210): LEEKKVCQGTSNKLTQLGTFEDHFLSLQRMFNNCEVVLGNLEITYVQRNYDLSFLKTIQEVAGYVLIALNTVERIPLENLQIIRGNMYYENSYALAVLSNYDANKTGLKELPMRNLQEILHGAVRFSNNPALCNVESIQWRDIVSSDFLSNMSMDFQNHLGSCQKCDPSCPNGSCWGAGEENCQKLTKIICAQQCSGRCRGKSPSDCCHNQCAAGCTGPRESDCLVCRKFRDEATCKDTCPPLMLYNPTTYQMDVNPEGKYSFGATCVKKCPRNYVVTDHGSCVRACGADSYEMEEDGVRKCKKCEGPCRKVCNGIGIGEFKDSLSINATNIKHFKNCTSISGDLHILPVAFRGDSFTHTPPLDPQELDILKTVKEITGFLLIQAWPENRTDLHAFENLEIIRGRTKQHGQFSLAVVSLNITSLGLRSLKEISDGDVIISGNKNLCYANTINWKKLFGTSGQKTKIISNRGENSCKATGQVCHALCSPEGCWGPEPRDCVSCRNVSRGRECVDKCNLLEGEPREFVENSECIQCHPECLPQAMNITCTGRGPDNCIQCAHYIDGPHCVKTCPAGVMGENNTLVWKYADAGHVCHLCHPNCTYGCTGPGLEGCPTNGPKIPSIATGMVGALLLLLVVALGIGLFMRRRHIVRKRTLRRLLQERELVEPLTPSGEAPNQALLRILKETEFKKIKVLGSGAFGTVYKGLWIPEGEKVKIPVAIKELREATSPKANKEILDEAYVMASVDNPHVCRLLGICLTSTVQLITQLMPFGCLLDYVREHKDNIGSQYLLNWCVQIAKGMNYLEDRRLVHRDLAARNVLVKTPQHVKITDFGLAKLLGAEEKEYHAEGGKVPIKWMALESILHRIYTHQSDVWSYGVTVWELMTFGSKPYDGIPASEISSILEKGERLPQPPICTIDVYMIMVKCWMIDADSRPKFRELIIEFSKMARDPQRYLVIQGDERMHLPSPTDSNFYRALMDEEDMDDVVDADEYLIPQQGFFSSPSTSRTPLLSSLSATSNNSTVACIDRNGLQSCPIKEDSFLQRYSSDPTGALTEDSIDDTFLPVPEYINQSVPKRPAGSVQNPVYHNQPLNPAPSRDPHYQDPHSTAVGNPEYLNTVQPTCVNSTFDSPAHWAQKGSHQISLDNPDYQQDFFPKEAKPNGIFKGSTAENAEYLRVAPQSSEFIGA

[9] = pH 7.0, NAD+/NADH or GSSG/GSH couple
[10] = Homo sapiens, A-431, 1% O2, read-out: IC50 hypoxia with 1% O2
[11] = Homo sapiens, A-431, 21% O2, read-out: IC50 normoxia
[12] = 25.0 °C, I = 0.1 M (KCl), anaerobic

## N[C@@H](CCC(=O)N[C@@H](CS)C(=O)NCC(=O)O)C(=O)O [GSH, Glutathione]
[1]; [9]
  formal potential: −0.24 V

## O=C1O[C@H]([C@@H](O)CO)C(O)=C1O [AA, ascorbic acid]
[1]
  formal potential, higher values suggested by recent literature: 0.35–0.50 V
[1]; dehydro-L-ascorbate/AA at pH 7.0
  formal potential: 0.06 V

## C#Cc1cccc(Nc2ncnc3cc(OCCOC)c(OCCOC)cc23)c1 [erlotinib, reference compound]
A431 cancer cells [2]; [10]
  IC50: 14.4 ± 4 µM
A431 cancer cells [2]; [11]
  IC50: 13.3 ± 4.7 µM

## NC(=O)C1=CN([C@@H]2O[C@H](COP(=O)(O)OP(=O)(O)OC[C@H]3O[C@@H](n4cnc5c(N)ncnc54)[C@H](O)[C@@H]3O)[C@@H](O)[C@H]2O)C=CC1 [NADH, reduced nicotinamide adenine dinucleotide]
[1]; [9]
  formal potential: −0.32 V

## CC(=O)[C-](C)C(C)=O.CC(=O)[C-](C)C(C)=O.CNCCNc1ccc2ncnc(Nc3cccc(Br)c3)c2c1.[Cl-].[Co+3] [Co(Meacac)2MeL^+, Bis(3-methyl-2,4-pentanedionato) N^4-(3-Bromophenyl)-N^6-[2-(methylamino)ethyl]quinazoline-4,6-diamine Cobalt(III) Chloride]
A431 cancer cells [2]
  increase in cytotoxicity at 0.1% O2 compared to normoxic conditions: 2.9 fold
A431 cancer cells [2]; 0.1% O2, read-out: IC50 hypoxia with 0.1% O2
  IC50: 19.9 ± 1 µM
A431 cancer cells [2]; 1% O2, read-out: IC50 hypoxia with 1% O2
  IC50: ~32 µM and 32 µM
A431 cancer cells [2]; 5% O2, read-out: IC50 hypoxia with 5% O2
  IC50: 55.2 ± 1.4 µM
A431 cancer cells [2]; 21% O2, read-out: IC50 normoxia
  IC50: 58.6 ± 4.4 µM
[3]
  EGFR-inhibitory potential (pEGFR, pERK 1/2): distinctly weakened EGFR-inhibitory potential
[4]
  cathodic peak potential (Ec) vs NHE: 17 mV

## CC(=O)CC(C)=O [acac, acetylacetone]
[5]
  pKa1: 8.80 ± 0.01 ^b
[6]; [12]
  log β [Co(II)L2] binary complex: 8.66 ± 0.05 ^b
  log β [Co(II)L] binary complex: 5.05 ± 0.02 ^b
[7]
  pKa: 8.82

## Bis(3-methyl-2,4-pentanedionato) (Methyl-1,2-ethanediamine) Cobalt(III) Hexafluorophosphate [Co(Meacac)2MeEn^+]
[4]
  cathodic peak potential (Ec) vs NHE: -200 mV

## CNCCN [MeEn, N-methylethylenediamine]
[5]
  pKa1: 7.04 ± 0.02
  pKa2: 9.98 ± 0.01
[6]; pH 7.4, 0.1 mM cobalt(II)
  fraction of ligand coordinated to cobalt(II): ~2%
[6]; pH 7.4, 1 mM cobalt(II)
  fraction of ligand coordinated to cobalt(II): ~11%
[6]; [12]
  log β [Co(II)L2] binary complex: 9.15 ± 0.02
  log β [Co(II)L3] binary complex: 12.94 ± 0.04
  log β [Co(II)L] binary complex: 5.26 ± 0.01
[6]; 25.0 °C, I = 0.1 M (KCl)
  log β [Co(II)A2B]0 ternary complex: 12.73 ± 0.09
  log β [Co(II)AB2]+ ternary complex: 13.20 ± 0.12
  log β [Co(II)AB]+ ternary complex: 9.82 ± 0.05

## [Cl-].[Cl-].[Co+2] [CoCl2]
A431 cancer cells [8]
  cytotoxic activity: No significant cytotoxic activity

## CC(=O)C=C(C)[O-].CC(=O)C=C(C)[O-].NCCN.[Co+2] [[Co(II)(acac)2en]]
A431 cancer cells [8]; A431 cells, both normoxia and hypoxia
  cytotoxic activity: No significant cytotoxic activity

## NCCNc1ccccc1 [PhEn, N-phenylethylenediamine]
[5]
  pKa1: 1.85 ± 0.01 ^c
  pKa2: 9.34 ± 0.01 ^c
[6]; pH 7.4, 1 mM cobalt(II)
  fraction of ligand coordinated to cobalt(II): < 1%
[6]; [12]
  log β [Co(II)L2] binary complex: 6.75 ± 0.09
  log β [Co(II)L] binary complex: 3.63 ± 0.05
[6]; 25.0 °C, I = 0.1 M (KCl)
  log β [Co(II)A2B]0 ternary complex: 12.08 ± 0.09
  log β [Co(II)AB2]+ ternary complex: 11.29 ± 0.13
  log β [Co(II)AB]+ ternary complex: 8.03 ± 0.15

## Bis(2,4-pentanedionato) (Methyl-1,2-ethanediamine) Cobalt(III) Hexafluorophosphate [Co(acac)2MeEn^+]
[4]
  cathodic peak potential (Ec) vs NHE: -152 mV

## CNCCNc1ccc2ncnc(Nc3cccc(Br)c3)c2c1.Cl.Cl [MeL, N^4-(3-Bromophenyl)-N^6-[2-(methylamino)ethyl]quinazoline-4,6-diamine Dihydrochloride]
A431 cancer cells [2]
  anticancer activity relative to L: approximately twice as effective as L
A431 cancer cells [2]; Homo sapiens, A-431, 0.1% O2, read-out: IC50 hypoxia with 0.1% O2
  IC50: 5.4 ± 0.8 µM
A431 cancer cells [2]; [10]
  IC50: 5.5 ± 0.4 µM
A431 cancer cells [2]; Homo sapiens, A-431, 5% O2, read-out: IC50 hypoxia with 5% O2
  IC50: 8.7 ± 1.2 µM
A431 cancer cells [2]; [11]
  IC50: 6.9 ± 1.8 µM
EGFR (ErbB1)
  IC50: 0.00041 µM
[3]
  EGFR-inhibitory potential (pEGFR, pERK 1/2): potent EGFR inhibition

From paper PMC7724630, “Improving the Stability of EGFR Inhibitor Cobalt(III) Prodrugs” (Inorganic Chemistry, 2020)
